Source: PubChem BioAssay (NCI)
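Cells were grown in 96-well plates and exposed to each compound for 48 hours at five concentrations; endpoints were interpolated linearly between bracketing concentrations, or set to the highest concentration if not reached. TGI: concentration producing complete growth inhibition.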 Where a SMILES comes first, the peptide text is derived from it. The star is where a group is joined. Boc = CC(C)(C)OC(=O)*

Tests used:
Assay in all cases: NCI tumour cell line growth inhibition, 48 h
A498 renal = tested on: A498 renal
A549 NSCLC = tested on: A549 NSCLC
CAKI-1 renal = tested on: CAKI-1 renal
CCRF-CEM leukemia = tested on: CCRF-CEM leukemia
COLO 205 colon = tested on: COLO 205 colon
DLD-1 colon = tested on: DLD-1 colon
DMS 114 small cell lung = tested on: DMS 114 small cell lung
DMS 273 small cell lung = tested on: DMS 273 small cell lung
EKVX NSCLC = tested on: EKVX NSCLC
HCC-2998 colon = tested on: HCC-2998 colon
HCT-116 colon = tested on: HCT-116 colon
HCT-15 colon = tested on: HCT-15 colon
HL-60(TB) leukemia = tested on: HL-60(TB) leukemia
HOP-18 NSCLC = tested on: HOP-18 NSCLC
HOP-62 NSCLC = tested on: HOP-62 NSCLC
HOP-92 NSCLC = tested on: HOP-92 NSCLC
HT29 colon = tested on: HT29 colon
IGROV1 ovarian = tested on: IGROV1 ovarian
K-562 leukemia = tested on: K-562 leukemia
KM12 colon = tested on: KM12 colon
KM20L2 colon = tested on: KM20L2 colon
LOX IMVI melanoma = tested on: LOX IMVI melanoma
M19-MEL melanoma = tested on: M19-MEL melanoma
MALME-3M melanoma = tested on: MALME-3M melanoma
MCF7 breast = tested on: MCF7 breast
MOLT-4 leukemia = tested on: MOLT-4 leukemia
NCI-H226 lung = tested on: NCI-H226 lung
NCI-H23 lung = tested on: NCI-H23 lung
NCI-H460 lung = tested on: NCI-H460 lung
NCI-H522 lung = tested on: NCI-H522 lung
NCI/ADR-RES ovarian = tested on: NCI/ADR-RES ovarian
OVCAR-3 ovarian = tested on: OVCAR-3 ovarian
OVCAR-4 ovarian = tested on: OVCAR-4 ovarian
OVCAR-5 ovarian = tested on: OVCAR-5 ovarian
OVCAR-8 ovarian = tested on: OVCAR-8 ovarian
P388 leukemia = tested on: P388 leukemia
RPMI-8226 leukemia = tested on: RPMI-8226 leukemia
RXF 393 renal = tested on: RXF 393 renal
SF-268 CNS = tested on: SF-268 CNS
SF-295 CNS = tested on: SF-295 CNS
SF-539 CNS = tested on: SF-539 CNS
SK-MEL-2 melanoma = tested on: SK-MEL-2 melanoma
SK-MEL-28 melanoma = tested on: SK-MEL-28 melanoma
SK-MEL-5 melanoma = tested on: SK-MEL-5 melanoma
SK-OV-3 ovarian = tested on: SK-OV-3 ovarian
SN12C renal = tested on: SN12C renal
SN12K1 renal = tested on: SN12K1 renal
SNB-19 CNS = tested on: SNB-19 CNS
SNB-75 CNS = tested on: SNB-75 CNS
SNB-78 CNS = tested on: SNB-78 CNS
SW-620 colon = tested on: SW-620 colon
U251 CNS = tested on: U251 CNS
UACC-257 melanoma = tested on: UACC-257 melanoma
UACC-62 melanoma = tested on: UACC-62 melanoma
UO-31 renal = tested on: UO-31 renal
786-0 renal = tested on: 786-0 renal
LXFL 529 NSCLC = tested on: LXFL 529 NSCLC
M14 melanoma = tested on: M14 melanoma
RXF-631 renal = tested on: RXF-631 renal
SR leukemia = tested on: SR leukemia
XF 498 CNS = tested on: XF 498 CNS

## C/C=C/c1cc2c(c(=O)o1)C(=O)[C@@H](O)[C@H](C)O2
A498 renal
  TGI: 16.9 µM
A549 NSCLC
  TGI: 34.3 µM
CAKI-1 renal
  TGI: 31.3 µM
CCRF-CEM leukemia
  TGI: 53.9 µM
COLO 205 colon
  TGI: 25.7 µM
DLD-1 colon
  TGI: 20 µM
DMS 114 small cell lung
  TGI: 19.1 µM
DMS 273 small cell lung
  TGI: 29.7 µM
EKVX NSCLC
  TGI: 31 µM
HCC-2998 colon
  TGI: 24 µM
HCT-116 colon
  TGI: 20.1 µM
HCT-15 colon
  TGI: 25.9 µM
HL-60(TB) leukemia
  TGI: 54.4 µM
HOP-18 NSCLC
  TGI: 31.9 µM
HOP-62 NSCLC
  TGI: 60.8 µM
HOP-92 NSCLC
  TGI: 31.2 µM
HT29 colon
  TGI: 44.6 µM
IGROV1 ovarian
  TGI: 23.3 µM
K-562 leukemia
  TGI: > 100 µM
KM12 colon
  TGI: 31 µM
KM20L2 colon
  TGI: 30.5 µM
LOX IMVI melanoma
  TGI: 26.4 µM
M19-MEL melanoma
  TGI: 27.2 µM
MALME-3M melanoma
  TGI: 32.5 µM
MCF7 breast
  TGI: 14.8 µM
MOLT-4 leukemia
  TGI: 49.3 µM
NCI-H226 lung
  TGI: 38.5 µM
NCI-H23 lung
  TGI: 32.4 µM
NCI-H460 lung
  TGI: 46.9 µM
NCI-H522 lung
  TGI: 20.4 µM
NCI/ADR-RES ovarian
  TGI: 32.3 µM
OVCAR-3 ovarian
  TGI: 32.8 µM
OVCAR-4 ovarian
  TGI: 29.7 µM
OVCAR-5 ovarian
  TGI: 31.1 µM
OVCAR-8 ovarian
  TGI: 35 µM
P388 leukemia
  TGI: 7.15 µM
RPMI-8226 leukemia
  TGI: 34.5 µM
RXF 393 renal
  TGI: 27.2 µM
SF-268 CNS
  TGI: 30 µM
SF-295 CNS
  TGI: 41.6 µM
SF-539 CNS
  TGI: 33.6 µM
SK-MEL-2 melanoma
  TGI: 34.2 µM
SK-MEL-28 melanoma
  TGI: 29.5 µM
SK-MEL-5 melanoma
  TGI: 29.4 µM
SK-OV-3 ovarian
  TGI: > 84.4 µM
SN12C renal
  TGI: 29.2 µM
SN12K1 renal
  TGI: 31.8 µM
SNB-19 CNS
  TGI: 46.1 µM
SNB-75 CNS
  TGI: 39 µM
SNB-78 CNS
  TGI: 42 µM
SW-620 colon
  TGI: 22.9 µM
U251 CNS
  TGI: 32.9 µM
UACC-257 melanoma
  TGI: 31.8 µM
UACC-62 melanoma
  TGI: 34.1 µM
UO-31 renal
  TGI: 37.2 µM

## CSCCC(NC(=O)C(CC(C)C)NC(=O)C1CCCN1C(=O)C(Cc1ccccc1)NC(=O)C(Cc1ccccc1)NC(=O)C(CCC(=O)O)NC(=O)OC(C)(C)C)C(N)=O (stereo not given) (Boc-EFFPLM-NH2; configuration not given here)
786-0 renal
  TGI: > 100 µM
A498 renal
  TGI: > 100 µM
CAKI-1 renal
  TGI: > 100 µM
CCRF-CEM leukemia
  TGI: > 100 µM
COLO 205 colon
  TGI: > 100 µM
DLD-1 colon
  TGI: > 100 µM
DMS 114 small cell lung
  TGI: > 100 µM
DMS 273 small cell lung
  TGI: > 100 µM
HCC-2998 colon
  TGI: > 100 µM
HCT-116 colon
  TGI: > 100 µM
HL-60(TB) leukemia
  TGI: > 100 µM
HOP-62 NSCLC
  TGI: > 100 µM
HOP-92 NSCLC
  TGI: > 100 µM
IGROV1 ovarian
  TGI: > 100 µM
K-562 leukemia
  TGI: > 100 µM
LOX IMVI melanoma
  TGI: > 100 µM
LXFL 529 NSCLC
  TGI: > 100 µM
M14 melanoma
  TGI: > 100 µM
M19-MEL melanoma
  TGI: > 100 µM
MALME-3M melanoma
  TGI: > 100 µM
MOLT-4 leukemia
  TGI: > 100 µM
NCI-H226 lung
  TGI: > 100 µM
NCI-H23 lung
  TGI: > 100 µM
NCI-H460 lung
  TGI: > 100 µM
NCI-H522 lung
  TGI: > 100 µM
OVCAR-4 ovarian
  TGI: > 100 µM
RPMI-8226 leukemia
  TGI: > 100 µM
RXF-631 renal
  TGI: > 100 µM
SF-268 CNS
  TGI: > 100 µM
SF-539 CNS
  TGI: > 100 µM
SK-MEL-2 melanoma
  TGI: > 100 µM
SK-MEL-28 melanoma
  TGI: > 100 µM
SK-OV-3 ovarian
  TGI: > 100 µM
SN12C renal
  TGI: > 100 µM
SNB-75 CNS
  TGI: > 100 µM
SNB-78 CNS
  TGI: > 100 µM
SR leukemia
  TGI: > 100 µM
UACC-62 melanoma
  TGI: > 100 µM
UO-31 renal
  TGI: > 100 µM
XF 498 CNS
  TGI: > 100 µM
